“And” between values parts separate entries of the source, which are not always exact repeats. Equal values may be shown once. Read-outs that look alike come from different tables or passages of the source.
Tests used:
[1] = target: T1, ribonucleotide reductase (RNR) (Homo sapiens, UniProt P23921); details: cited from earlier work
T1 sequence (P23921 1-792): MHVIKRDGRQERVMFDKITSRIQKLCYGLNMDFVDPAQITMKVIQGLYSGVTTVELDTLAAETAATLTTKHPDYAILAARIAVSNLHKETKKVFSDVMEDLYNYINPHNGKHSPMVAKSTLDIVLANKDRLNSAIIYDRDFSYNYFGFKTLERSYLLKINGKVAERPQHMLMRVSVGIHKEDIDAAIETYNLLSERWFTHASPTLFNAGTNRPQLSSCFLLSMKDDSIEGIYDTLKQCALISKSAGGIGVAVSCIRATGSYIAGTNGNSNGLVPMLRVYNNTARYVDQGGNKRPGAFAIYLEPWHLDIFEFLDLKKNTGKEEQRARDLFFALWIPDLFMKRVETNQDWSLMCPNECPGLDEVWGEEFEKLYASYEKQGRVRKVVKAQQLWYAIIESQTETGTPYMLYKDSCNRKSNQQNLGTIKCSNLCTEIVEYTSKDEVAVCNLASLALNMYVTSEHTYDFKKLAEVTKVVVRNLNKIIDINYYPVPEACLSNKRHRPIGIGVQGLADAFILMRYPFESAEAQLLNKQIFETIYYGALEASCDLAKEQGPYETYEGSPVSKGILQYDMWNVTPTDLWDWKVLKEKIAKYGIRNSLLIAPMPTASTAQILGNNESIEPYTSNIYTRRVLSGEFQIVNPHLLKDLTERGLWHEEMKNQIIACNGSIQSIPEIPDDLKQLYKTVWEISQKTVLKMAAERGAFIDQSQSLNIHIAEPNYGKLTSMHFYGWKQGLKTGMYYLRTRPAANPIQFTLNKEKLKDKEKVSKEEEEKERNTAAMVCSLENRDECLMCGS

[2] = for systemic exposure per day: topical 1.0% (10 mg/g), 7% systemic absorption
Text: (§1) Systemic absorption is a concern, because of the potential for serious adverse events, such as lymphopenia and renal toxicity. At oncology doses, these adverse reactions are usually minimized, but the therapeutic index is narrow. Another factor that plays a role in the safety of the formulation is the amount of product administered each day. Approximately 4 grams, 12 grams, and 40 grams of a topical formulation are estimated to cover 10%, 30%, and 100% of the body surface area.
as §1
as §1, with “Calculations of safety margins have been performed, based upon this assumption and the known toxicity profile of F-Ara-A when administered IV for oncology indications. Systemic” for “Systemic”
as §1

U-937 cells [3] = test: Cytokine secretion by ELISA (Example 31); assay type: cell-based; details: for effect on suppressing the production of IL-6: 46 hours
Procedure: (§2) In a search for a topical agent that can locally deplete levels of T-cells in the skin, apoptotic compounds were evaluated for their mechanisms of action. The ability that […] induce apoptosis by the same mechanisms was examined by cytokine secretion. […] Caspase-3 and cytokine (IL-2, IL-6, TNF, and IFN-γ) levels were determined and compared to controls at 23 and 46 hours. FdA was incorporated to evaluate the effect of the halogen group and Ara-C for its overlapping mechanisms of action. […] At the end of the treatment period, the cells were harvested and Caspase-3 induction was determined using a flow-cytometry-based method to quantify the percentage of cells that induced Caspase-3. The level of apoptosis is expressed as “% FITC shift”. Cytokine secretion (IL-2, IL-6, TNF, and IFN-γ) was measured at the same time by ELISA and is expressed in pg/mL. […]

dCK = dCK (Homo sapiens, UniProt P27707); details: read-out: Km for dCK; cited from earlier work
dCK, sequence (P27707 whole entry, species assumed): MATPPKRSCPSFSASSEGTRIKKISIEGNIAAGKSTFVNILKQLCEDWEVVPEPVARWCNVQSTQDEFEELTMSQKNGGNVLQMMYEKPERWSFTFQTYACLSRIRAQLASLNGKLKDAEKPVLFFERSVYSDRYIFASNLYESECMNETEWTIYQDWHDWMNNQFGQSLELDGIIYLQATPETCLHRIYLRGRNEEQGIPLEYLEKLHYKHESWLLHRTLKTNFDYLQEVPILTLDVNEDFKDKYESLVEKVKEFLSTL

ADA = ADA (Homo sapiens, UniProt P00813); details: cited from earlier work
ADA, sequence (P00813 whole entry, species assumed): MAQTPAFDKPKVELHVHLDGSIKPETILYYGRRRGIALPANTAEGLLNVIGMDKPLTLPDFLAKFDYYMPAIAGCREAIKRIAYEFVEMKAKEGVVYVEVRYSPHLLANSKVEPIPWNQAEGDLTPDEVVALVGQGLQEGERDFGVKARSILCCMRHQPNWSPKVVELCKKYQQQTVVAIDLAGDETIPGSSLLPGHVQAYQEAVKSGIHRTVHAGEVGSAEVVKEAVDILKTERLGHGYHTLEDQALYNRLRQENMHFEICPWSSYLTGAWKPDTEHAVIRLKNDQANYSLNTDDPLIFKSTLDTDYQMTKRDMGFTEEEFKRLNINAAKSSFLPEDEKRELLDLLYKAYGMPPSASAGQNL

Jurkat cells [4] = test: Caspase-3 induction by flow cytometry (Example 31); assay type: cell-based; details: drug 1 μM, PHA-activated cells
Procedure: as §2

U-937 cells [5] = test: Caspase-3 induction by flow cytometry (Example 31); assay type: cell-based; details: drug 1 μM, LPS-activated cells
Procedure: as §2

Jurkat cells [6] = test: Cytokine secretion by ELISA (Example 31); assay type: cell-based
Procedure: In a search for a topical agent that can locally deplete levels of T-cells in the skin, apoptotic compounds were evaluated for their mechanisms of action. The ability that […] induce apoptosis by the same mechanisms was examined by cytokine secretion. […] At the end of the treatment period, the cells were harvested and Caspase-3 induction was determined using a flow-cytometry-based method to quantify the percentage of cells that induced Caspase-3. The level of apoptosis is expressed as “% FITC shift”. Cytokine secretion (IL-2, IL-6, TNF, and IFN-γ) was measured at the same time by ELISA and is expressed in pg/mL.

U937 monocytoid cells [7] = test: TUNEL assay, dAd, adenosine and adenine dose ranging (Example 24); assay type: cell-based; details: for % FITC Shift / % PI Shift: 2 days
Procedure: U937 monocytoid cells were cultured in the presence of dAd at various concentrations of dAd (0, 50, 75, 100, 250 and 1000 micromoles/liter). The cells were incubated in dAd for 2 days. At the end of the treatment period, the cells were harvested for analysis by a TUNEL assay, a flow-cytometry-based method to quantify the percentage of cells that have undergone apoptosis. The level of apoptosis expressed as “% FITC shift”. The level of cell cycle arrest is expressed as “% PI shift”. As a positive control, the cells were exposed to 5 mM camptothecin for 2 days.

[8] = systemic, deamination by CDA; cited from earlier work
Jurkat T cells = test: TUNEL apoptosis assay, sequential exposure to dCF then dAd (Example 21); assay type: cell-based; details: Camptothecin 5 uM, positive control
Procedure: (§3) Thus, it is hypothesized that the sequential exposure of the cells to dCF, followed by deoxyadenosine (dAd) will lead to greater levels of apoptosis than dCF alone. […] The cells were then incubated in dAd for 2 more days. At the end of the treatment period, the cells were harvested for analysis by a TUNEL assay, a flow-cytometry-based method to quantify the percentage of cells that have undergone apoptosis. The level of apoptosis is expressed as “% FITC shift”. As a positive control, the cells were exposed to 5 mM camptothecin for 2 days.

U937 monocytoid cells [9] = test: as above; assay type: cell-based; details: Camptothecin 5 uM, positive control
Procedure: as §3

U937 monocytoid cells [10] = test: TUNEL assay, simultaneous exposure to dCF and dAd (Example 22); assay type: cell-based; details: camptothecin positive control, 2 days (5 mM printed elsewhere in the source)
Procedure: Methods Simultaneous Exposure—U937 monocytoid cells were cultured in the presence of 0, 1, 2.5, 10, 20, 50, 100, 150, 200, and 250 μM dAdo for 2 days. […] At the end of the treatment period, the cells were harvested for analysis by a TUNEL assay, a flow-cytometry-based method to quantify the percentage of cells that have undergone apoptosis. The level of apoptosis is expressed as “% FITC shift”. As a positive control, the cells were exposed to 5 mM camptothecin for 2 days.

U937 monocytoid cells [11] = test: TUNEL assay, dAd added at different times after dCF wash-out (Example 22); assay type: cell-based; details: 0 μM dCF + camptothecin positive control, time after wash-out 0 hr (5 mM printed elsewhere in the source)
U937 monocytoid cells [12] = test: as above; assay type: cell-based; details: 0 μM dCF + camptothecin positive control, time after wash-out 0 hr (5 mM printed elsewhere in the source); remark: listed apart in the source
Procedure: At 0, 6, 24, and 48 hours, 50 μM dAd was added and the cells were incubated for an additional 2 days. At the end of the treatment period, the cells were harvested for analysis by a TUNEL assay, a flow-cytometry-based method to quantify the percentage of cells that have undergone apoptosis. The level of apoptosis is expressed as “% FITC shift”. As a positive control, the cells were exposed to 5 mM camptothecin for 2 days.

[13] = 23 hr, drug 1 μM, LPS-activated cells
[14] = 46 hr, drug 1 μM, LPS-activated cells
[15] = Camptothecin 5 uM, positive control
[16] = 23 hr, drug 5 μM, positive control
[17] = 46 hr, drug 5 μM, positive control

## Nc1nc(Cl)nc2c1ncn2[C@H]1C[C@H](O)[C@@H](COP(=O)(O)OP(=O)(O)OP(=O)(O)O)O1 [CdATP, 2-chloro-2′-deoxyadenosine-5′-triphosphate]
[1]
  IC50: 60 nM

## Nc1ccn([C@@H]2O[C@H](CO)[C@@H](O)[C@@H]2O)c(=O)n1 [ara-C, Cytosine 1β-D-Arabinofuranoside]
[2]
  times safer than the oncology dose: 9643
[2]; 10% BSA (4 grams)
  systemic exposure per day: 2.8 mg
[2]; 30% BSA (12 grams)
  systemic exposure per day: 8.4 mg
[2]; 100% BSA (40 grams)
  systemic exposure per day: 28 mg
U-937 cells [3]; [13]
  Cytokine Secretion IL-6 pg/ml Mean of 3 Replicates: 7 pg/mL
U-937 cells [3]; drug 1 μM
  effect on suppressing the production of IL-6: little effect
U-937 cells [3]; [14]
  Cytokine Secretion IL-6 pg/ml Mean of 3 Replicates: 7 pg/mL

## Nc1nc(Cl)nc2c1ncn2[C@@H]1O[C@H](CO)[C@@H](O)[C@@H]1F [Clofarabine]
dCK
  Km: 5 µM

## COc1nc(N)nc2c1ncn2[C@@H]1O[C@H](CO)[C@@H](O)[C@@H]1O [Nelarabine]
ADA
  Km to ADA relative to that of adenosine: less than 1%

## Nc1nc(F)nc2c1ncn2C1OC(COP(=O)(O)OP(=O)(O)OP(=O)(O)O)C(O)C1O (centres unmarked) [F-Ara-ATP]
[1]
  IC50: ~600 nM

## Nc1ccn(C2OC(COP(=O)(O)OP(=O)(O)O)C(O)C2(F)F)c(=O)n1 (centres unmarked) [gemcitabine diphosphate]
[1]
  IC50: 200 nM

## Nc1nc(F)nc2c1ncn2[C@H]1C[C@H](O)[C@@H](CO)O1 [FdA, 2-fluoro-2′-deoxyadenosine]
Jurkat cells [4]; 23 hr
  Caspase-3 Induction % FITC Shift - Mean of 3 Replicates: 75%
Jurkat cells [4]; 46 hr
  Caspase-3 Induction % FITC Shift - Mean of 3 Replicates: 95%
U-937 cells [5]; 23 hr
  Caspase-3 Induction % FITC Shift - Mean of 3 Replicates: 67%
U-937 cells [5]; 46 hr
  Caspase-3 Induction % FITC Shift - Mean of 3 Replicates: 51%
U-937 cells [3]; [13]
  Cytokine Secretion IL-6 pg/ml Mean of 3 Replicates: 7 pg/mL
U-937 cells [3]; drug 1 μM
  effect on suppressing the production of IL-6: little effect
U-937 cells [3]; [14]
  Cytokine Secretion IL-6 pg/ml Mean of 3 Replicates: 7 pg/mL and 8 pg/mL
Jurkat cells [6]; 23 hr, drug 1 μM, PHA-activated cells
  Cytokine Secretion IL-2 pg/ml Mean of 3 Replicates: 41 pg/mL
Jurkat cells [6]; 46 hr, drug 1 μM, PHA-activated cells
  Cytokine Secretion IL-2 pg/ml Mean of 3 Replicates: 72 pg/mL
Jurkat cells [6]; Jurkat cells activated by PHA, 46 hours, drug 1 μM
  IL-2 concentration: 72 pg/mL

## Nc1[nH]cnc2ncnc1-2 [Adenine, 1H-Purin-6-amine]
U937 monocytoid cells [7]; at 1000 uM
  effect on apoptosis or cell cycle: slight hint of an effect
U937 monocytoid cells [7]; drug 50 uM, no dCF
  % FITC Shift: 0.4%
  % PI Shift: 2.0%
U937 monocytoid cells [7]; drug 75 uM, no dCF
  % FITC Shift: 0.6%
  % PI Shift: 2.4%
U937 monocytoid cells [7]; drug 100 uM, no dCF
  % FITC Shift: 0.3%
  % PI Shift: 2.5%
U937 monocytoid cells [7]; drug 250 uM, no dCF
  % FITC Shift: 0.7%
  % PI Shift: 3.4%
U937 monocytoid cells [7]; drug 1000 uM, no dCF
  % FITC Shift: 2.9%
  % PI Shift: 9.5%
U937 monocytoid cells [7]; up to 250 uM
  effect on apoptosis or cell cycle: little or no effect

## Nc1ncnc2c1ncn2[C@@H]1O[C@H](CO)[C@@H](O)[C@H]1O [Adenosine, 9-β-D-Ribofuranosyl-9H-purin-6-amine]
U937 monocytoid cells [7]; at 1000 uM
  effect on apoptosis or cell cycle: slight hint of an effect
U937 monocytoid cells [7]; drug 50 uM, no dCF
  % FITC Shift: 0.7%
  % PI Shift: 1.7%
U937 monocytoid cells [7]; drug 75 uM, no dCF
  % FITC Shift: 0.6%
  % PI Shift: 2.1%
U937 monocytoid cells [7]; drug 100 uM, no dCF
  % FITC Shift: 0.6%
  % PI Shift: 2.0%
U937 monocytoid cells [7]; drug 250 uM, no dCF
  % FITC Shift: 0.6%
  % PI Shift: 1.9%
U937 monocytoid cells [7]; drug 1000 uM, no dCF
  % FITC Shift: 2.9%
  % PI Shift: 7.9%
U937 monocytoid cells [7]; up to 250 uM
  effect on apoptosis or cell cycle: little or no effect

## Nc1ccn([C@@H]2O[C@H](CO)[C@@H](O)C2(F)F)c(=O)n1 [Gemcitabine]
[8]
  half-life: 10 to 20 min

## CC[C@@]1(O)C(=O)OCc2c1cc1n(c2=O)Cc2cc3ccccc3nc2-1 [Camptothecin]
Jurkat T cells
  % FITC Shift: 80.2%
U937 monocytoid cells [9]
  % FITC Shift: 93.4%
U937 monocytoid cells [10]
  % FITC Shift: 79.5%
  % PI Shift: 43.4%
U937 monocytoid cells [7]; [15]
  % FITC Shift: 72.8%
  % PI Shift: 32.2%
U937 monocytoid cells [11]
  % PI Shift: 29.2%
U-937 cells [3]; [16]
  Cytokine Secretion IL-6 pg/ml Mean of 3 Replicates: 0 pg/mL
U-937 cells [3]; [17]
  Cytokine Secretion IL-6 pg/ml Mean of 3 Replicates: 0 pg/mL
Jurkat cells [6]; [16]
  Cytokine Secretion IL-2 pg/ml Mean of 3 Replicates: 0 pg/mL
Jurkat cells [6]; [17]
  Cytokine Secretion IL-2 pg/ml Mean of 3 Replicates: 0 pg/mL
U937 monocytoid cells [12]
  % FITC Shift: 84.3%

Source: patent US20070142317A1, “Topical composition for treatment of skin disorders” (QLT USA, Inc., priority 2003, published 2007)
